Results from ChEMBL document CHEMBL4673368, “Ophiobolin Sesterterpenoids and Farnesylated Phthalide Derivatives from the Deep Sea Cold-Seep-Derived Fungus Aspergillus insuetus SD-512” (2020).

Tests used:
Type in all cases: functional
Aeromonas hydrophila = assay: Antibacterial activity against Aeromonas hydrophila QDIO-10 assessed as reduction in microbial growth after 24 hrs by serial dilution method
Vibrio anguillarum = assay: Antibacterial activity against Vibrio anguillarum QDIO-9 assessed as reduction in microbial growth after 24 hrs by serial dilution method
Edwardsiella tarda = assay: Antibacterial activity against Edwardsiella tarda QDIO-8 assessed as reduction in microbial growth after 24 hrs by serial dilution method
Vibrio vulnificus = assay: Antibacterial activity against Vibrio vulnificus QDIO-4 assessed as reduction in microbial growth after 24 hrs by serial dilution method
Vibrio alginolyticus = assay: Antibacterial activity against Vibrio alginolyticus QDIO-7 assessed as reduction in microbial growth after 24 hrs by serial dilution method
Pseudomonas aeruginosa = assay: Antibacterial activity against Pseudomonas aeruginosa QDIO-2 assessed as reduction in microbial growth after 24 hrs by serial dilution method
Vibrio parahaemolyticus = assay: Antibacterial activity against Vibrio parahaemolyticus QDIO-5 assessed as reduction in microbial growth after 24 hrs by serial dilution method
Escherichia coli = assay: Antibacterial activity against Escherichia coli QDIO-1 assessed as reduction in microbial growth after 24 hrs by serial dilution method

| MIC (Aeromonas hydrophila) | MIC (Vibrio anguillarum) | MIC (Edwardsiella tarda) | MIC (Vibrio vulnificus) | MIC (Vibrio alginolyticus) | MIC (Pseudomonas aeruginosa) | MIC (Escherichia coli) | Compound | MIC (Vibrio parahaemolyticus) |
| --- | --- | --- | --- | --- | --- | --- | --- | --- |
| > 32 µg/mL | > 32 µg/mL | > 32 µg/mL | > 32 µg/mL | > 32 µg/mL | > 32 µg/mL | > 32 µg/mL | CO[C@]12C[C@@](C)(O)[C@H]3C[C@@]4(C)CC[C@H]([C@@H](C)/C=C\C=C(C)C)[C@@H]4C/C=C(/CO1)[C@@]32O | > 32 µg/mL |
| 4 µg/mL | 32 µg/mL | 4 µg/mL | 8 µg/mL | 4 µg/mL | 8 µg/mL | 4 µg/mL | CC(C)=CCC[C@H](C)[C@H]1CC[C@]2(C)C[C@H]3[C@H]4/C(=C\C[C@@H]12)CO[C@@]4(O)C[C@@]3(C)O | 4 µg/mL |
| > 32 µg/mL | > 32 µg/mL | > 32 µg/mL | > 32 µg/mL | > 32 µg/mL | > 32 µg/mL | > 32 µg/mL | CC(C)=CCC[C@H](C)[C@H]1CC[C@]2(C)C[C@@H]3C(C)=CC(=O)[C@H]3/C(CO)=C\C[C@@H]12 | > 32 µg/mL |
| 8 µg/mL | 32 µg/mL | 8 µg/mL | 8 µg/mL | 4 µg/mL | 8 µg/mL | 16 µg/mL | CC(C)=C/C=C\[C@H](C)[C@H]1CC[C@]2(C)C[C@@H]3C(C)=CC(=O)[C@H]3/C(CO)=C\C[C@@H]12 | 8 µg/mL |
| 16 µg/mL | > 32 µg/mL | 8 µg/mL | 4 µg/mL | 8 µg/mL | 16 µg/mL | 32 µg/mL | COc1cc2c(c(O)c1OC/C=C(\C)CC/C=C(\C)CCCC(C)(C)O)COC2=O | 16 µg/mL |
| 8 µg/mL | 32 µg/mL | 8 µg/mL | 8 µg/mL | 4 µg/mL | 8 µg/mL | 16 µg/mL | CC(C)=C/C=C\[C@H](C)[C@H]1CC[C@]2(C)C[C@@H]3C(C)=CC(=O)[C@H]3/C(C=O)=C\C[C@@H]12 | 8 µg/mL |
| 8 µg/mL | > 32 µg/mL | 4 µg/mL | 4 µg/mL | 4 µg/mL | 8 µg/mL | 32 µg/mL | COc1cc2c(c(O)c1OC/C=C(\C)CC/C=C(\C)CCCC(C)(C)OC(C)=O)COC2=O | 8 µg/mL |
| > 32 µg/mL | > 32 µg/mL | > 32 µg/mL | > 32 µg/mL | > 32 µg/mL | > 32 µg/mL | > 32 µg/mL | CC(C)=CCC[C@H](C)[C@H]1CC[C@]2(C)C[C@@H]3C(C)=CC(=O)[C@H]3/C(C=O)=C\C[C@@H]12 | > 32 µg/mL |
| 8 µg/mL | > 32 µg/mL | 8 µg/mL | 4 µg/mL | 4 µg/mL | 16 µg/mL | 32 µg/mL | COc1cc2c(c(O)c1OC/C=C(\C)CC/C=C(\C)CCC=C(C)C)COC2=O | 16 µg/mL |
| > 32 µg/mL | > 32 µg/mL | > 32 µg/mL | > 32 µg/mL | > 32 µg/mL | > 32 µg/mL | > 32 µg/mL | CC(C)=CCC[C@H](C)[C@H]1CC[C@]2(C)C[C@H]3[C@@H]4/C(=C\C[C@@H]12)CO[C@]4(O)C[C@@]3(C)O | > 32 µg/mL |
| > 32 µg/mL | > 32 µg/mL | > 32 µg/mL | > 32 µg/mL | > 32 µg/mL | > 32 µg/mL | > 32 µg/mL | CC(C)=C/C=C\[C@H](C)[C@H]1CC[C@]2(C)C[C@H]3[C@@H]4/C(=C\C[C@@H]12)CO[C@]4(O)C[C@@]3(C)O | > 32 µg/mL |

| Compound | MIC (Aeromonas hydrophila) | MIC (Vibrio anguillarum) | MIC (Edwardsiella tarda) | MIC (Vibrio vulnificus) | MIC (Vibrio alginolyticus) | MIC (Pseudomonas aeruginosa) | MIC (Escherichia coli) | MIC (Vibrio parahaemolyticus) |
| --- | --- | --- | --- | --- | --- | --- | --- | --- |
| O=C(N[C@H](CO)[C@H](O)c1ccc([N+](=O)[O-])cc1)C(Cl)Cl [CHLORAMPHENICOL] | 1 µg/mL | 0.5 µg/mL | 0.5 µg/mL | 0.5 µg/mL | 0.5 µg/mL | 1 µg/mL | 1 µg/mL | 1 µg/mL |
